Assay results reported in BindingDB's records for doi:10.1021/jm00018a023 (Upjohn, 1995).

Each compound was assayed against T1, Dimer of Gag-Pol polyprotein [489-587] (Human immunodeficiency virus 1, UniProt P12497) (assay: Protease Inhibition Assay). Conditions: pH 5; 22 °C.
T1 construct: 489-587
Excerpt: HIV-1 protease was purified and refolded from E. coli inclusion bodies. The substrate used spans the p17-p24 processing site (R-V-S-Q-N-Y-P-I-V-Q-N-K) and was derivatized with biotin and fluorescein isothiocyanate (FITC) at the amino and carboxy termini. In the presence of HIV-l protease, the substrate is rapidly cleaved into two parts. The biotinylated amino terminal fragment binds to the avidin beads while the FITC-containing carboxy1 terminal fragment is removed through the membrane. […] The bound fluorescence is obtained by processing on an IDEXX Screen Machine. Determination of Ki values with this assay requires analysis under conditions in which substrate concentration resides substantially below Km and the inhibitor concentrations greatly exceeds the Ki value and the enzyme concentration.
In the case of `CCC(c1cccc(C(=O)N[C@H](C(=O)NCc2ccccn2)C(C)CC)c1)c1c(O)c2ccccc2oc1=O` (some centres undefined) [3-[1-(4-Hydroxy-2-oxo-2H-1-benzopyran-3-yl)propyl]-N-[2-methyl-1-[[(2-pyridinylmethyl)amino]carbonyl]butyl]benzamide], the Ki is reported as 400 nM. Work on `CCC(c1cccc(NC(=O)CCNC(=O)OC(C)(C)C)c1)c1c(O)c2ccc(OC)cc2oc1=O` (centres undefined) [4-Hydroxy-3-[1-3-[[3-[(tert-butyloxycarbonyl)amino]-1-oxopropyl]amino]phenyl]propyl]-7-methoxycoumarin] yielded a Ki of 170 nM. `CCC(c1cccc(C(=O)NCc2nc3ccccc3[nH]2)c1)c1c(O)c2ccccc2oc1=O` (centres undefined) [N-(1H-1,3-benzodiazol-2-ylmethyl)-3-[1-(4-hydroxy-2-oxo-2H-chromen-3-yl)propyl]benzamide] was tested, and the Ki was 4400 nM. In the case of `CC(C)(C)OC(=O)NCCC(=O)Nc1cccc(C(c2c(O)c3ccccc3oc2=O)C2CC2)c1` (centres undefined) [tert-butyl N-[2-({3-[cyclopropyl(4-hydroxy-2-oxo-2H-chromen-3-yl)methyl]phenyl}carbamoyl)ethyl]carbamate], the Ki is reported as 86 nM.
